Data reported in patent US9062041B2 (Bayer Intellectual Property GmbH, priority 2011, dated 2015).

Assays:
Assay type in all cases: cell-based
[1] = molecular target: EP4 subtype of the human PGE2 receptor (Homo sapiens, UniProt P35408); test: cAMP antagonism test on the human EP4 receptor (HTRF cAMP detection); settings: selectivity towards hEP4, IC50 measured by cAMP antagonism test
Procedure, shortened: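 Competitive HTRF cAMP read-out (cAMP-d2 vs Eu-cryptate anti-cAMP antibody, 665/620 nm ratio) on lysed human EP4 cells. Compound (0.8 nM–16.5 μM) applied 20 min at RT before 60 min PGE2 challenge (3× solution 0.3 nM, IBMX present); 20 min lysis precedes reading.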

human PGD receptor = molecular target: T1, human PGD receptor (Homo sapiens, UniProt Q13258); test: cAMP antagonism test on the human prostaglandin D receptor (HTRF cAMP detection); settings: selectivity towards hDP, IC50 measured by cAMP antagonism test
T1 sequence (Q13258 1-359): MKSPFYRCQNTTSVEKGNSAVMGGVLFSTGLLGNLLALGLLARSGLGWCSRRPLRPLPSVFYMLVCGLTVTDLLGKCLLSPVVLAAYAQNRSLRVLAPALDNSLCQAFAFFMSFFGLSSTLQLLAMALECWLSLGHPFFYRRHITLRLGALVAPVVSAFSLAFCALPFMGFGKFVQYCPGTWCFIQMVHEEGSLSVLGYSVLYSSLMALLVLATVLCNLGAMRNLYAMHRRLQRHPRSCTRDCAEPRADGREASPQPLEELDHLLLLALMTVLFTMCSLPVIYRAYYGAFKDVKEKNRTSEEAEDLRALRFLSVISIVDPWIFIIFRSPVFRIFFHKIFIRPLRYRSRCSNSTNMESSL
Procedure, shortened: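 HTRF competition read-out (665/620 nm ratio ×10000), where higher FRET means less cAMP, i.e. antagonism. Compounds (0.8 nM–16.5 μM) were preincubated 20 min at RT with cells and cAMP-d2, PGD2 (3× solution, 6 nM) in IBMX-containing PBS added for 30 min at RT, then cells lysed 20 min.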

[2] = molecular target: EP2 subtype of the human PGE2 receptor (Homo sapiens, UniProt P43116); test: cAMP antagonism test on the human EP2 receptor (HTRF cAMP detection); settings: hEP2 receptor, read-out: Antagonism hEP2 IC50
EP2 subtype of the human PGE2 receptor, sequence (P43116 whole entry): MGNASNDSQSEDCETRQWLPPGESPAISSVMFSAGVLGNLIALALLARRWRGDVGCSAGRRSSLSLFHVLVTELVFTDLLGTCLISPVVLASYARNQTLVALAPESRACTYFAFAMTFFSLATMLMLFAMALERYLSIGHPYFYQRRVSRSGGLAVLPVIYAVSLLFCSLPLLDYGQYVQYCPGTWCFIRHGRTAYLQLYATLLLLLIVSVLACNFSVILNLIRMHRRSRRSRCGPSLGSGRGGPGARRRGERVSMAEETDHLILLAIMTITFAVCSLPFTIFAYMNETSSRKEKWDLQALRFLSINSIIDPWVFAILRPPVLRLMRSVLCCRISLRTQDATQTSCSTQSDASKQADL
Procedure, shortened: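 Read-out is a competitive HTRF for cAMP: lysate cAMP displaces cAMP-d2 from Eu cryptate-labelled antibody, and antagonism raises the 665/620 nm ratio. Compound (0.8 nM–16.5 μM) added to EP2 cells 20 min at RT before 60 min PGE2 challenge (3× stock 1.5 nM) with IBMX, followed by 20 min lysis.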

EP4 subtype of the human PGE2 receptor, sequence (P35408 whole entry): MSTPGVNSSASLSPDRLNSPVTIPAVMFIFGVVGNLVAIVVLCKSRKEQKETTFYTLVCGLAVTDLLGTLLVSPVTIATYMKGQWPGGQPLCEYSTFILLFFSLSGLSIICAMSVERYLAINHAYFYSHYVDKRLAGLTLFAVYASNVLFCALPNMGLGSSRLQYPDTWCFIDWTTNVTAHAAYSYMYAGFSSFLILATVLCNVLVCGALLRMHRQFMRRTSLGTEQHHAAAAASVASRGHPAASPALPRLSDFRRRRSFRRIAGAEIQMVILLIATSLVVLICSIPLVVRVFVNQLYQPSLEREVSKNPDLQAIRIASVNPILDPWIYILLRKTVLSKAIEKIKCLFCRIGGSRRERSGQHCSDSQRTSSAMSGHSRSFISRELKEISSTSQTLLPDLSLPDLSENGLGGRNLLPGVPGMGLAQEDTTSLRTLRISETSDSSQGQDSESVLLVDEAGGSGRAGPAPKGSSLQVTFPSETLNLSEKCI

Selectivity hEP2/hEP4 [1] | Selectivity hEP2/hDP (human PGD receptor) | IC50 [2] [µM] | SMILES
xxx (xxx > 100) | xxx (xxx > 100) | 0.00646 | Cc1c(C(=O)NCCOC(F)(F)F)ccc2nn(CC3CCN(C(=O)c4ccc(Oc5ccc(F)cc5)cc4)CC3)cc12 [Example 108, 2-({1-[4-(4-fluoro-phenoxy)benzoyl]-piperidin-4-yl}methyl)-4-methyl-N-[2-(tri-fluoromethoxy)ethyl]-2H-indazol-5-carboxamide]
xxx (xxx > 100) | xxx (xxx > 100) | 0.0455 | COCCNC(=O)c1ccc2nn(CC3CCN(C(=O)c4ccc(C(F)(F)F)cc4F)CC3)cc2c1OC [Example 267, 2-({1-[2-fluoro-4-(trifluoromethyl)benzoyl]piperidin-4-yl}methyl)-4-methoxy-N-(2-methoxyethyl)-2H-indazol-5-carboxamide]
xx (xx: 10-100) | xx (xx: 10-100) | 0.345 | Cc1c(C(=O)NCC(F)(F)F)ccc2nn(CC3CCN(C(=O)c4cnc(-c5ccccc5)s4)CC3)cc12 [Example 298, 4-methyl-2-({1-[(2-phenylthiazol-5-yl)carbonyl]piperidin-4-yl}methyl)-N-(2,2,2-trifluoroethyl)-2H-indazol-5-carboxamide]
xx (xx: 10-100) | xx (xx: 10-100) | 0.218 | Cc1cc2nn(CC3CCN(C(=O)c4cccc(C(F)(F)F)c4)CC3)cc2cc1C(=O)NCCN1CCOCC1 [Example 82, 6-methyl-N-(2-morph-olinoethyl)-2-({1-[3-(trifluoromethyl)-benzoyl]piperidin-4-yl}methyl)-2H-indazol-5-carboxamide]
xxx (xxx > 100) | xxx (xxx > 100) | 0.0057 | COCCNC(=O)c1ccc2nn(CC3CCN(C(=O)c4ccc(-c5ccccc5)c(C)c4)CC3)cc2c1C [Example 394, N-(2-methoxyethyl)-4-methyl-2-({1-[(2-methylbiphenyl-4-yl)carbonyl]piperidin-4-yl}methyl)-2H-indazol-5-carboxamide]
xxx (xxx > 100) | xxx (xxx > 100) | 0.00559 | COCCNC(=O)c1ccc2nn(CC3CCN(C(=O)c4ccc(-c5ccc(F)cc5F)cc4)CC3)cc2c1C [Example 48, 2-({1-[(2′,4′-difluoro-biphenyl-4-yl)-carbonyl]piperidin-4-yl}methyl)-N-(2-methoxyethyl)-4-methyl-2H-indazol-5-carboxamide]
xxx (xxx > 100) | xxx (xxx > 100) | 0.0217 | COCCNC(=O)c1ccc2nn(CC3CCN(C(=O)c4nc(-c5ccccc5)no4)CC3)cc2c1C [Example 352, N-(2-methoxyethyl)-4-methyl-2-({1-[(3-phenyl-1,2,4-oxadiazol-5-yl)carbonyl]-piperidin-4-yl}methyl)-2H-indazol-5-carboxamide]
xxx (xxx > 100) | xxx (xxx > 100) | 0.024 | Cc1c(C(=O)NCCOCC2CC2)ccc2nn(CC3CCN(C(=O)c4ccc(C(F)(F)F)cc4)CC3)cc12 [Example 87, N-[2-(cyclopropyl-methoxy)ethyl]-4-methyl-2-({l-[4-(tri-fluoromethyl)benzoyl]piperidin-4-yl}-methyl)-2H-indazol-5-carboxamide]
xxx (xxx > 100) | xxx (xxx > 100) | 0.0189 | COCCNC(=O)c1ccc2nn(CC3CCN(C(=O)c4ccc(OC(F)(F)F)cc4)CC3)cc2c1OC [Example 266, 4-methoxy-N-(2-methoxyethyl)-2-({1-[4-(trifluoromethoxy)benzoyl]piperidin-4-yl}methyl)-2H-indazol-5-carboxamide]
xxx (xxx > 100) | xxx (xxx > 100) | 0.0222 | Cc1c(C(=O)NCC(F)(F)F)ccc2nn(CC3CCN(C(=O)c4ccc(Oc5cccc(C(F)(F)F)c5)cc4)CC3)cc12 [Example 308, 4-methyl-N-(2,2,2-trifluoroethyl)-2-[(1-{4-[3-(trifluoromethyl)phenoxy]-benzoyl}piperidin-4-yl)methyl]-2H-indazol-5-carboxamide]
xxx (xxx > 100) | xxx (xxx > 100) | 0.1 | Cc1c(C(=O)NCC(F)(F)F)ccc2nn(CC3CCN(C(=O)c4ccc(-c5ccc(F)cc5)cc4)CC3)cc12 [Example 286, 2-({1-[(4′-fluorobiphenyl-4-yl)carbonyl]piperidin-4-yl}methyl)-4-methyl-N-(2,2,2-trifluoroethyl)-2H-indazol-5-carboxamide]
xxx (xxx > 100) | xxx (xxx > 100) | 0.0601 | COCCNC(=O)c1ccc2nn(CC3CCN(C(=O)c4ccccc4OC)CC3)cc2c1C [Example 24, 2-{[1-(2-methoxy-benzoyl)piperidin-4-yl]methyl}-N-(2-methoxyethyl)-4-methyl-2H-indazol-5-carboxamide]
xxx (xxx > 100) | xxx (xxx > 100) | 0.00857 | COCCNC(=O)c1ccc2nn(CC3CCN(C(=O)c4ccc(Oc5ccccc5)cc4)CC3)cc2c1C [Example 19, N-(2-methoxyethyl)-4-methyl-2-{[1-(4-phenoxybenzoyl)-piperidin-4-yl]-methyl}-2H-indazol-5-carboxamide]
xxx (xxx > 100) | xxx (xxx > 100) | 0.0442 | COCCNC(=O)c1ccc2nn(CC3CCN(C(=O)c4ccc(N5CCOCC5)cc4F)CC3)cc2c1C [Example 53, 2-{[1-(2-fluoro-4-morpholinobenzoyl)-piperidin-4-yl]-methyl}-N-(2-methoxyethyl)-4-methyl-2H-indazol-5-carboxamide]
xxx (xxx > 100) | xxx (xxx > 100) | 0.0508 | Cc1c(C(=O)NCC2CCCCO2)ccc2nn(CC3CN(C(=O)c4ccc(Cl)cc4)C3)cc12 (racemic) [Example 144, (+/−)-2-{[1-(4-chlorobenzoyl)azetidin-3-yl]methyl}-4-methyl-N-(3,4,5,6-tetrahydro-2H-pyran-2-ylmethyl)-2H-indazol-5-carboxamide]
xxx (xxx > 100) | xxx (xxx > 100) | 0.02 | Cc1c(C(=O)NCC(F)(F)F)ccc2nn(CC3CCN(C(=O)c4cc5cc(F)ccc5n4C)CC3)cc12 [Example 292, 2-({1-[(5-fluoro-1-methyl-1H-indol-2-yl)carbonyl]piperidin-4-yl}methyl)-4-methyl-N-(2,2,2-trifluoroethyl)-2H-indazol-5-carboxamide]
xxx (xxx > 100) | xxx (xxx > 100) | 0.0274 | Cc1c(C(=O)NCC2COCCO2)ccc2nn(CC3CN(C(=O)c4ccc(Oc5ccc(F)cc5)cc4)C3)cc12 (racemic) [Example 148, (+/−)-N-(1,4-dioxan-2-ylmethyl)-2-({1-[4-(4-fluorophenoxy)benzoyl]azetidin-3-yl}methyl)-4-methyl-2H-indazol-5-carboxamide]
